# Measurements from patent publication US20240358693A1, “METHODS OF TREATING PAIN” (Aisa Pharma, Inc., priority 2023, published 2024).
# System: participants with SSc-RP
# Assay: Scleroderma Health Assessment Questionnaire (SHAQ): disability indices and visual analog scales
# Format: in vivo, human
# Conditions: Day 12
# Text: The standard, validated, patient reported outcome measures tool for SSc patients, the Scleroderma Health Assessment Questionnaire (SHAQ), will be used to assess the participant qualify of life. Details are attached in the Appendix. The participant quality of life will be scored, and a disability index calculated for each questionnaire completed by the patient at Screening and each in-clinic visit. The absolute change in participant quality of life from baseline to the end of each dosing period will be calculated similar to frequency data as before.
# The SHAQ includes a Raynaud's VAS, which will be reported at screening and each in-clinic visit. The absolute change in Raynaud-VAS, assessed by the participants response to the SHAQ question ‘In the past 7 days, how much have your Raynaud's interfered with your daily activities?’ at baseline and the end of each dosing period will be calculated similar to frequency data as before.
# The SHAQ is used to calculate a Disability Index to assess the participant qualify of life. The eight categories assessed by the Disability Index are 1) dressing and grooming, 2) arising, 3) eating, 4) walking, 5) hygiene, 6) reach, 7) grip, and 8) common daily activities. For each of these categories, patients report the amount of difficulty they have in performing two or three specific activities.
# There are four possible responses for the Disability Index questions: • Without any difficulty=0 • With some difficulty=1 • With much difficulty=2 • Unable to do=3. • The highest score reported by the patient for any component question of the eight categories determines the score for that category. • If a component question is left blank or the response is too ambiguous to assign a score, then the score for that category is determined by the remaining completed question(s). • If all component questions are blank or if more than one answer is given, then follow up with the respondent is required. • If the respondent's mark is between the response columns, then move it to the closest one. If it's directly between the two, move it to the higher one.
# Each of the disability items on the SHAQ has a companion aids/devices variable that is used to record what type(s) of assistance, if any, the participant uses for his/her usual activities. These variables (see below) are coded as follows: • 0=No assistance is needed. • 1=A special device is used by the patient in his/her usual activities. • 2=The patient usually needs help from another person. • 3=The patient usually needs BOTH a special device AND help from another person.
# The scoring variables and scoring rules permit the computation of two disability indices, the Standard Disability Index and the Alternative Disability Index.
# This question results in a new set of category scores that are computed by adjusting the score for each category, if necessary, based on the patient's use of an aid or device or assistance for that category. If either devices and/or help from another person are checked for a category, the score is set to “2”, unless the score is already “3” (i.e., scores of “0” or “1” are increased to “2”). For example, if the highest score for the dressing category is “1”, and the patient says they use a device for dressing, the computed category score would be “2”. The sum of the computed categories scores is then calculated and divided by the number of categories answered. This gives a score in the 0 to 3 range.
# The aid and device variables are not used to calculate the alternative disability index; it is calculated by adding the scores for each of the categories and dividing by the number of categories answered. This gives a score in the 0 to 3 range.
# The standard, validated, patient reported outcome measures tool for SSc patients, the SHAQ, was collected at the time points specified in the study schedules (FIG. 2 and FIGS. 4A and 4B) to assess the participant's quality of life. The SHAQ included a Raynaud's VAS that will also be reported separately.
# [1] = Modified ITT, Part A, dose Cilnidipine 20 mg, or 20 mg + Tadalafil 5 mg
# [2] = Pooled Cilnidipine 10 mg and Cilnidipine 10 mg + Tadalafil 5 mg (N = 9), PP Population Part A
# [3] = Pooled Cilnidipine 10 mg and Cilnidipine 10 mg + Tadalafil 5 mg (N = 9), PP Population Part A, Subject 01-110 score excluded
# [4] = Pooled Cilnidipine 20 mg and Cilnidipine 20 mg + Tadalafil 5 mg (N = 8), PP Population Part A
smiles,measurement,setting,value
"COCCOC(=O)C1=C(C)NC(C)=C(C(=O)OC/C=C/c2ccccc2)C1c1cccc([N+](=O)[O-])c1 (centres unmarked) [Cilnidipine, cilnidipine]","SHAQ Finger Ulcers, Percent Change from Baseline, Median",[1],35.29%
same,"SHAQ Standard Disability Index, Change from Baseline, Mean",[1],−0.125
same,"SHAQ Standard Disability Index, Change from Baseline, Median",[1],−0.125
same,"SHAQ Standard Disability Index, Percent Change from Baseline, Mean",[1],−50.00%
same,"SHAQ Standard Disability Index, Percent Change from Baseline, Median",[1],−50.00%
same,"SHAQ Visual Analog Scale-Breathing Problems, Change from Baseline, Mean",[1],−0.833
same,"SHAQ Visual Analog Scale-Breathing Problems, Change from Baseline, Median",[1],−0.800
same,"SHAQ Visual Analog Scale-Breathing Problems, Percent Change from Baseline, Mean",[1],−5.56%
same,"SHAQ Visual Analog Scale-Breathing Problems, Percent Change from Baseline, Median",[1],−66.67%
same,"SHAQ Visual Analog Scale-Intestinal Problems, Change from Baseline, Mean",[1],0.300
same,"SHAQ Visual Analog Scale-Intestinal Problems, Change from Baseline, Median",[1],0.300
same,"SHAQ Visual Analog Scale-Intestinal Problems, Percent Change from Baseline, Mean",[1],35.00%
same,"SHAQ Visual Analog Scale-Intestinal Problems, Percent Change from Baseline, Median",[1],35.00%
same,"SHAQ Visual Analog Scale-Pain, Change from Baseline, Mean",[1],−1.100
same,"SHAQ Visual Analog Scale-Pain, Change from Baseline, Median",[1],−0.800
same,"SHAQ Visual Analog Scale-Pain, Percent Change from Baseline, Mean",[1],−52.56%
same,"SHAQ Visual Analog Scale-Pain, Percent Change from Baseline, Median",[1],−53.33%
same,"SHAQ Visual Analog Scale-Raynaud's, Change from Baseline, Mean",[1],−1.267
same,"SHAQ Visual Analog Scale-Raynaud's, Change from Baseline, Median",[1],−1.100
same,"SHAQ Visual Analog Scale-Raynaud's, Percent Change from Baseline, Mean",[1],−48.63%
same,"SHAQ Visual Analog Scale-Raynaud's, Percent Change from Baseline, Median",[1],−44.00%
same,"SHAQ Visual Analogue Scale - Finger Ulcers, Change from Baseline, Mean",[2],−0.267
same,"SHAQ Visual Analogue Scale - Finger Ulcers, Change from Baseline, Median",[2],−0.100
same,"SHAQ Visual Analogue Scale - Finger Ulcers, Percent Change from Baseline, Mean",[2],−46.06%
same,"SHAQ Visual Analogue Scale - Finger Ulcers, Percent Change from Baseline, Median",[2],−31.94%
same,"SHAQ Visual Analogue Scale - Intestinal Problems, Change from Baseline, Mean",[2],−1.228
same,"SHAQ Visual Analogue Scale - Intestinal Problems, Change from Baseline, Median",[2],−0.250
same,"SHAQ Visual Analogue Scale - Intestinal Problems, Percent Change from Baseline, Mean",[2],−27.93%
same,"SHAQ Visual Analogue Scale - Intestinal Problems, Percent Change from Baseline, Median",[2],−54.13%
same,"SHAQ Visual Analogue Scale - Overall Disease Severity, Change from Baseline, Mean",[2],−0.606
same,"SHAQ Visual Analogue Scale - Overall Disease Severity, Change from Baseline, Median",[2],−0.700
same,"SHAQ Visual Analogue Scale - Overall Disease Severity, Percent Change from Baseline, Mean",[2],−24.68%
same,"SHAQ Visual Analogue Scale - Overall Disease Severity, Percent Change from Baseline, Median",[2],−30.93%
same,"SHAQ Visual Analogue Scale - Pain, Change from Baseline, Mean",[2],−0.633
same,"SHAQ Visual Analogue Scale - Pain, Change from Baseline, Median",[2],−0.700
same,"SHAQ Visual Analogue Scale - Pain, Percent Change from Baseline, Mean",[2],−20.07%
same,"SHAQ Visual Analogue Scale - Pain, Percent Change from Baseline, Median",[2],−21.87%
same,"SHAQ Visual Analogue Scale - Raynaud's, Change from Baseline, Mean",[2],−0.414
same,"SHAQ Visual Analogue Scale - Raynaud's, Change from Baseline, Median",[2],−0.100
same,"SHAQ Visual Analogue Scale - Raynaud's, Percent Change from Baseline, Mean",[2],−9.97%
same,"SHAQ Visual Analogue Scale - Raynaud's, Percent Change from Baseline, Median",[2],−4.39%
same,"SHAQ Visual Analogue Scale - Breathing Problems, Change from Baseline, Mean",[3],−0.175
same,"SHAQ Visual Analogue Scale - Breathing Problems, Change from Baseline, Median",[3],0.000
same,"SHAQ Visual Analogue Scale - Breathing Problems, Percent Change from Baseline, Mean",[3],−26.05%
same,"SHAQ Visual Analogue Scale - Breathing Problems, Percent Change from Baseline, Median",[3],−21.33%
same,"SHAQ Visual Analogue Scale - Breathing Problems, Change from Baseline, Mean",[4],0.225
same,"SHAQ Visual Analogue Scale - Breathing Problems, Change from Baseline, Median",[4],0.150
same,"SHAQ Visual Analogue Scale - Breathing Problems, Percent Change from Baseline, Mean",[4],93.65%
same,"SHAQ Visual Analogue Scale - Breathing Problems, Percent Change from Baseline, Median",[4],31.58%
same,"SHAQ Visual Analogue Scale - Finger Ulcers, Change from Baseline, Mean",[4],−0.950
same,"SHAQ Visual Analogue Scale - Finger Ulcers, Change from Baseline, Median",[4],−0.050
same,"SHAQ Visual Analogue Scale - Finger Ulcers, Percent Change from Baseline, Mean",[4],−15.69%
same,"SHAQ Visual Analogue Scale - Finger Ulcers, Percent Change from Baseline, Median",[4],−48.04%
same,"SHAQ Visual Analogue Scale - Intestinal Problems, Change from Baseline, Mean",[4],0.200
same,"SHAQ Visual Analogue Scale - Intestinal Problems, Change from Baseline, Median",[4],0.000
same,"SHAQ Visual Analogue Scale - Intestinal Problems, Percent Change from Baseline, Mean",[4],−6.27%
same,"SHAQ Visual Analogue Scale - Intestinal Problems, Percent Change from Baseline, Median",[4],−29.44%
same,"SHAQ Visual Analogue Scale - Overall Disease Severity, Change from Baseline, Mean",[4],−1.425
same,"SHAQ Visual Analogue Scale - Overall Disease Severity, Change from Baseline, Median",[4],−1.550
same,"SHAQ Visual Analogue Scale - Overall Disease Severity, Percent Change from Baseline, Mean",[4],−47.98%
same,"SHAQ Visual Analogue Scale - Overall Disease Severity, Percent Change from Baseline, Median",[4],−48.23%
same,"SHAQ Visual Analogue Scale - Pain, Change from Baseline, Mean",[4],−0.500
